Assay [1] deals with T1, PSMA-His6 (Homo sapiens, UniProt Q04609). The assay is described as follows: PSMA enzyme assay (NAAG hydrolysis, Amplex Red glutamate detection). Also noted: A 15-mer library was screened against the soluble ectodomain of PSMA; purchased R&D Systems. Type of assay: biochemical. The procedure:
The glutamic acid/glutamate released from the natural substrate of PSMA, NAAG (N-acetylaspartylglutamate), was analyzed by the fluorescence-based Amplex Red Glutamic Acid/Glutamate Oxidase assay kit (Invitrogen) as previously described, [22], [32], [33]. […] Then NAAG (4 µM, 10 µL) was added to the peptide/PSMA-His6 mixture (37°C, 30 min). The enzymatic reaction was quenched (500 mM NaH2PO4/Na2HPO4, pH 7.4, 10 µL). […] Data was analyzed by non-linear regression with GraphPad Prism.

Assay [2] concerns the target T1, PSMA-His6. The assay can be described thus: AlphaScreen competition binding assay. (In general: Bead proximity is the source of the signal in Alpha formats.)
Protocol: The AlphaScreen competition binding assay was performed based on published procedures [29], [30], [31]. […] The mixture was incubated (ambient temperature, 1 h), and then nickel chelate acceptor beads (5 µL, 120 µg/mL) were added followed by a second incubation (dark, ambient temperature, 1 h). Streptavidin donor beads (5 µL, 120 µg/mL) were added for a final incubation (dark, ambient temperature, 30 m). […] Data was analyzed by non-linear regression with GraphPad Prism.
Only when the peptide binds to PSMA (thus bringing the two beads close to each other), can the AlphaScreen (emission) signal be generated, in which case, the singlet oxygen generated by the excitation at 680 nm on the donor bead can transfer energy to the adjacent acceptor bead and subsequently produce an emission signal at 520–620 nm.
Where [3] appears, read: NAAG substrate, PSMA-His6, 37°C, read-out: Enzyme inhibition (footnote symbols: no inhibition observed at the stated concentration).
Where [4] appears, read: highest concentration tested without inhibition, limited by solubility of the peptide, read-out: PSMA enzymatic reaction: no inhibition at the stated concentration.

Consider three molecules from publication PMC3723849, “Evaluation of Phage Display Discovered Peptides as Ligands for Prostate-Specific Membrane Antigen (PSMA)” (PLoS ONE, 2013).

The structures appear in SMILES notation. Residues, ends and D or L forms follow the SMILES beside them. *: point of attachment. Acm = CC(=O)NC*

T1 sequence (Q04609 44-750 limits assumed): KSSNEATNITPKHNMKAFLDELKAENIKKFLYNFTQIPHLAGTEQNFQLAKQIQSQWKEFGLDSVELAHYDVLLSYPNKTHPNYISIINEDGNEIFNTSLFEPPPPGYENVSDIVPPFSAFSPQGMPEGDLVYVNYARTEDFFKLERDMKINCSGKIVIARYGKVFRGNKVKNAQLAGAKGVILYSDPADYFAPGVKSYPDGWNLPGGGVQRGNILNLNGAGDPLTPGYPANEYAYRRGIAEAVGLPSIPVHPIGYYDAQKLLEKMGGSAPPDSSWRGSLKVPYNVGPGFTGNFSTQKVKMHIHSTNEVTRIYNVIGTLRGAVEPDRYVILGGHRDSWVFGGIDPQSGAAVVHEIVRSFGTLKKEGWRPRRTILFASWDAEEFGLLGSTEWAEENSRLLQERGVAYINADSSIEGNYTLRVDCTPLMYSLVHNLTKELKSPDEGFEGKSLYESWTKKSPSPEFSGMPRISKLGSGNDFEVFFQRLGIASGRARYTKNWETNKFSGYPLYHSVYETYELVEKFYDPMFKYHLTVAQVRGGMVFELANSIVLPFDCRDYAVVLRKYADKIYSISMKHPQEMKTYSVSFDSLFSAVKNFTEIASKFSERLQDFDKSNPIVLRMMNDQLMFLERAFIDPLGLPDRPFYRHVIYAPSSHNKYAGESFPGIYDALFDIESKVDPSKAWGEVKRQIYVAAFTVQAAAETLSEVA

`CC(C)[C@H](NC(=O)[C@H](CO)NC(=O)[C@H](Cc1ccccc1)NC(=O)[C@H](CO)NC(=O)[C@H](Cc1c[nH]cn1)NC(=O)[C@@H](N)CO)C(=O)NCC(=O)N[C@@H](CO)C(=O)NCC(=O)N[C@@H](CC(=O)O)C(=O)N[C@@H](Cc1c[nH]cn1)C(=O)N[C@@H](CO)C(=O)N1CCC[C@H]1C(=O)N[C@@H](Cc1ccccc1)C(=O)N[C@H](C(=O)NCC(=O)NCC(=O)NCC(=O)N[C@@H](CO)C(=O)NCCOCCOCCOCCOCCOCCOCCC(=O)N[C@@H](CSC1CC(=O)N(CCC(=O)NCCCC[C@H](NC(=O)CCN2C(=O)CC(SC[C@H](NC(=O)CCOCCOCCOCCOCCOCCOCCNC(=O)[C@H](CO)NC(=O)CNC(=O)CNC(=O)CNC(=O)[C@@H](NC(=O)[C@H](Cc3ccccc3)NC(=O)[C@@H]3CCCN3C(=O)[C@H](CO)NC(=O)[C@H](Cc3c[nH]cn3)NC(=O)[C@H](CC(=O)O)NC(=O)CNC(=O)[C@H](CO)NC(=O)CNC(=O)[C@@H](NC(=O)[C@H](CO)NC(=O)[C@H](Cc3ccccc3)NC(=O)[C@H](CO)NC(=O)[C@H](Cc3c[nH]cn3)NC(=O)[C@@H](N)CO)C(C)C)[C@@H](C)O)C(N)=O)C2=O)C(=O)NCCCC[C@H](NC(=O)[C@H](CCCCNC(=O)CCN2C(=O)CC(SC[C@H](NC(=O)CCOCCOCCOCCOCCOCCOCCNC(=O)[C@H](CO)NC(=O)CNC(=O)CNC(=O)CNC(=O)[C@@H](NC(=O)[C@H](Cc3ccccc3)NC(=O)[C@@H]3CCCN3C(=O)[C@H](CO)NC(=O)[C@H](Cc3c[nH]cn3)NC(=O)[C@H](CC(=O)O)NC(=O)CNC(=O)[C@H](CO)NC(=O)CNC(=O)[C@@H](NC(=O)[C@H](CO)NC(=O)[C@H](Cc3ccccc3)NC(=O)[C@H](CO)NC(=O)[C@H](Cc3c[nH]cn3)NC(=O)[C@@H](N)CO)C(C)C)[C@@H](C)O)C(N)=O)C2=O)NC(=O)CCN2C(=O)CC(SC[C@H](NC(=O)CCOCCOCCOCCOCCOCCOCCNC(=O)[C@H](CO)NC(=O)CNC(=O)CNC(=O)CNC(=O)[C@@H](NC(=O)[C@H](Cc3ccccc3)NC(=O)[C@@H]3CCCN3C(=O)[C@H](CO)NC(=O)[C@H](Cc3c[nH]cn3)NC(=O)[C@H](CC(=O)O)NC(=O)CNC(=O)[C@H](CO)NC(=O)CNC(=O)[C@@H](NC(=O)[C@H](CO)NC(=O)[C@H](Cc3ccccc3)NC(=O)[C@H](CO)NC(=O)[C@H](Cc3c[nH]cn3)NC(=O)[C@@H](N)CO)C(C)C)[C@@H](C)O)C(N)=O)C2=O)C(=O)NCCC(=O)O)C1=O)C(N)=O)[C@@H](C)O` (stereo partly drawn) [(562)4]: the IC50 in assay [1] (against 1 µM NAAG, peptide pre-incubated with PSMA-His6 37°C 30 min, reaction 37°C 30 min, TBS, fluorescence Ex 530/Em 590, read-out: Enzyme inhibition IC50) is 311 µM.

As to `CC(=O)NCSC[C@H](NC(=O)[C@H](CO)NC(=O)[C@H](Cc1ccccc1)NC(=O)[C@H](Cc1ccccc1)NC(=O)[C@H](CO)NC(=O)[C@@H](N)CC(C)C)C(=O)N[C@@H](Cc1c[nH]c2ccccc12)C(=O)N[C@@H](CC(C)C)C(=O)N[C@@H](CCCNC(=N)N)C(=O)N[C@@H](CCCNC(=N)N)C(=O)N[C@@H](CO)C(=O)N[C@@H](Cc1ccccc1)C(=O)N[C@@H](CO)C(=O)N[C@@H](CC(C)C)C(=O)N[C@H](C(N)=O)[C@@H](C)O` [Peptide 564] (H-LSFFSC(Acm)WLRRSFSLT-NH2), the IC50 in assay [1] (setting [3]) and in assay [1] (setting [4]) was more than 55.5 µM throughout.

With `CC[C@H](C)[C@H](NC(=O)[C@H](CSCNC(C)=O)NC(=O)[C@H](CCCNC(=N)N)NC(=O)[C@H](CCSC)NC(=O)[C@H](CC(C)C)NC(=O)[C@H](Cc1ccccc1)NC(=O)[C@H](CC(C)C)NC(=O)[C@H](CC(C)C)NC(=O)[C@H](Cc1ccccc1)NC(=O)[C@H](CCSC)NC(=O)[C@H](CCCNC(=N)N)NC(=O)[C@H](C)N)C(=O)NCC(=O)N[C@@H](CSCNC(C)=O)C(=O)N[C@@H](Cc1ccc(O)cc1)C(N)=O` [Peptide 565] (H-ARMFLLFLMRC(Acm)IGC(Acm)Y-NH2; N-terminus assumed), the IC50 in assay [2] was more than 4.83 µM; in assay [1] (setting [3]), more than 14.5 µM; in assay [1] (setting [4]) it was more than 14.5 µM.
